Values after ≈ are worked out from the molar mass of the structure shown.
Tests used:
[1] = tested on: Staphylococcus aureus, strain ATCC 25923; details: Table 5; strain ATCC 25923
[2] = tested on: Cryptococcus neoformans; assay: MIC microbroth dilution (CLSI); format: cell-based; details: G.R. Micro collection
[3] = tested on: Trichophyton mentagrophytes; assay: MIC microbroth dilution (CLSI); format: cell-based; details: G.R. Micro collection
[4] = tested on: Candida tropicalis; assay: MIC microbroth dilution (CLSI); format: cell-based; details: ATCC750 - reference strain
[5] = tested on: Aspergillus niger; assay: MIC microbroth dilution (CLSI); format: cell-based; details: G.R. Micro collection
[6] = tested on: Klebsiella aerogenes; format: cell-based
From the text: (§1) Cation-adjusted Mueller-Hinton broth (Oxoid Ltd., Basingstoke, UK and Trek Diagnostic Systems Ltd., East Grinstead, UK) (supplemented with 5% laked horse blood for Streptococcus spp., Corynebacterium jeikeium and Listeria monocytogenes) was used for aerobic bacteria, with an initial inoculum of approximately 10^5 colony-forming units (CFU)/m L.

[7] = tested on: Enterobacter sp; format: cell-based
From the text: as §1

[8] = tested on: Enterococcus faecium; format: cell-based
From the text: as §1

[9] = tested on: Streptococcus pyogenes; format: cell-based
From the text: as §1

[10] = tested on: Staphylococcus haemolyticus; format: cell-based
From the text: as §1

[11] = tested on: Group G Streptococcus; format: cell-based
From the text: as §1

[12] = tested on: Morganella morganii; format: cell-based
From the text: as §1

[13] = tested on: Streptococcus agalactiae; format: cell-based
From the text: as §1

[14] = tested on: Staphylococcus aureus; format: cell-based
From the text: as §1
(§2) To evaluate whether freezing affected the activity of the peptides some MIC determinations were repeated using plates containing freshly-prepared Mueller-Hinton broth.

[15] = tested on: Propionibacterium acnes; assay: MIC microbroth dilution (CLSI); format: cell-based
Procedure: Supplemented Brucella broth (SBB) was used for the anaerobic strains with an inoculum of approximately 10^6 CFU/mL. SBB is a broth consisting of 1% peptone, 0.5% ‘Lab-lemco’, 1% glucose and 0.5% sodium chloride supplemented with 5 μg/L haemin and 1 μg/L vitamin K (both obtained from Sigma Aldrich Ltd.) Yeast and filamentous fungal MIC were performed in MOPS buffered RPMI 1640 medium (MOPS buffer obtained from Sigma Aldrich Ltd., RPMI 1640 obtained from Invitrogen Ltd, Paisley, Scotland). The yeast inocula were in the range 7.5×10^2-4×10^3 CFU/mL and the filamentous fungi approximately 8×10^3-1×10^5 CFU/mL
MICs were determined as described in Example 2.

[16] = tested on: P. aeruginosa; assay: Antimicrobial assay, Table 5; format: cell-based
[17] = tested on: S. pyogenes; assay: Antimicrobial assay, Table 5; format: cell-based
[18] = tested on: E. coli; assay: Antimicrobial assay, Table 5; format: cell-based
[19] = tested on: Methicillin resistant Staphylococcus epidermidis (MRSE) strain ATCC 27626; details: Table 5; strain ATCC 27626
[20] = tested on: Microsporum canis; assay: MIC microbroth dilution (CLSI); format: cell-based; details: G.R. Micro collection
[21] = tested on: Candida parapsilosis
[22] = tested on: Trichophyton interdigitale; assay: MIC microbroth dilution (CLSI); format: cell-based; details: G.R. Micro collection
[23] = tested on: C. albicans; assay: Antimicrobial assay, Table 5; format: cell-based
[24] = tested on: Staphylococcus aureus FDA486; assay: Murine skin infection model, topical treatment; format: in vivo, mice
Procedure: (§3) The skin of mice was infected with Staphylococcus aureus or Streptococcus pyogenes and subsequently given a total of three treatments at three hourly intervals. Three hours after the last treatment, skin biopsies were collected and the number of colony forming units (CFUs) present in the skin sample was determined. Results are shown in FIGS. 1 and 2, expressed as the number of colony forming units per mouse.
In experiment 1 (FIG. 1), compound 2 was applied to the murine skin as part of either a cream or a gel containing 2% (w/w) of compound 2. The same cream or gel without compound 2 was used as a negative control (placebo).
(§4) The skin of mice was infected with Staphylococcus aureus or Streptococcus pyogenes and subsequently given a total of three treatments at three hourly intervals. Three hours after the last treatment, skin biopsies were collected and the number of colony forming units (CFUs) present in the skin sample was determined. Results are shown in FIGS. 3, 4 and 5 expressed as the number of colony forming units per mouse.
In experiment 1 (FIG. 3), compound 7 was applied to the murine skin as part of either a cream or a gel containing 2% (w/w) of compound 7. The same cream or gel without compound 7 was used as a negative control (placebo). Bactroban 2% cream was used as a positive control.
In experiment 3 (FIG. 5), compound 8 was applied in a 2% cream formulation on a Staphylococcus aureus FDA 486 infection in the murine skin infection model. A placebo cream and two known antibacterials, “Fucidin (fucidic acid) ointment 2%” and “Bactroban (mupericin) cream 2%” were used as controls.

[25] = tested on: Methicillin resistant Staphylococcus aureus (MRSA) strain ATCC 33591; details: Table 5; strain ATCC 33591
[26] = tested on: Salmonella sp; assay: MIC microbroth dilution (CLSI); format: cell-based
From the text: as §1

[27] = tested on: Staphylococcus saprophyticus; assay: MIC microbroth dilution (CLSI); format: cell-based; details: antibiotic susceptible clinical isolate
From the text: as §1

[28] = tested on: Shigella sp; assay: MIC microbroth dilution (CLSI); format: cell-based; details: antibiotic-susceptible clinical isolate
From the text: as §1

[29] = tested on: Stenotrophomonas maltophilia; assay: MIC microbroth dilution (CLSI); format: cell-based; details: antibiotic-susceptible clinical isolate
From the text: as §1

[30] = tested on: Listeria monocytogenes; assay: MIC microbroth dilution (CLSI); format: cell-based; details: antibiotic-susceptible clinical isolate
From the text: as §1

[31] = tested on: Enterococcus gallinarum; assay: MIC microbroth dilution (CLSI); format: cell-based; details: vancomycin-resistant (VanC) clinical isolate
From the text: as §1

[32] = tested on: Candida (Issatchenkia) krusei
[33] = tested on: Corynebacterium jeikeium; format: cell-based
From the text: as §1

[34] = tested on: Staphylococcus epidermidis; format: cell-based
From the text: as §1

[35] = tested on: Enterococcus faecalis; format: cell-based; details: vancomycin-resistant (VanB) clinical isolate
From the text: as §1, §2

[36] = tested on: Clostridium perfringens; details: antibiotic-susceptible clinical isolate
[37] = tested on: Streptococcus pyogenes; assay: Murine skin infection model, topical treatment; format: in vivo, mice; details: FIG. 4, Streptococcus pyogenes CS 301
Procedure: as §3
In experiment 2 (FIG. 2), compound 2 was applied in two different concentrations, as either a 1% or a 2% gel. A placebo gel and a known antibacterial “bactroban” were used as controls.
as §4
In experiment 2 (FIG. 4), compound 7 was applied in two different concentrations, as either a 1% or a 2% gel. A placebo gel and a known antibacterial “bactroban (mupericin)” were used as controls.

[38] = antibiotic-susceptible clinical isolate

`CCCCCCNC(=O)[C@H](CCCNC(=N)N)NC(=O)[C@H](Cc1c(C(C)(C)C)[nH]c2c(C(C)(C)C)cc(C(C)(C)C)cc12)NC(=O)[C@@H](N)CCCNC(=N)N` [Compound 8] showed a S. aureus [1] of 2 mg/L, an MIC [2] of 2 µg/mL (≈ 2.6 µM) and an MIC [3] of 4 µg/mL (≈ 5.21 µM). The MIC [4] was 4 µg/mL (≈ 5.21 µM), the MIC [5] was 4 µg/mL (≈ 5.21 µM) and the MIC [6] was 8 µg/mL (≈ 10.4 µM). For the same compound, the MIC [7] was 8 µg/mL (≈ 10.4 µM), the MIC [8] was 4 µg/mL (≈ 5.21 µM) and the MIC [9] was 8 µg/mL (≈ 10.4 µM). It also gave an MIC [10] of 4 µg/mL (≈ 5.21 µM), an MIC [11] of 8 µg/mL (≈ 10.4 µM) and an MIC [12] of 8 µg/mL (≈ 10.4 µM). For the same compound, the MIC [13] was 8 µg/mL (≈ 10.4 µM), the MIC [14] was 4 µg/mL (≈ 5.21 µM) and the MIC ([15]; antibiotic-resistant clinical isolate) was 2 µg/mL (≈ 2.6 µM). It also gave an MIC [15, 38] of 4 µg/mL (≈ 5.21 µM), a P. aeruginosa [16] of 5 mg/L and a S. pyogenes [17] of 2 mg/L. The E. coli [18] was 5 mg/L, the MRSE [19] was <1 mg/L and the MIC [20] was 4 µg/mL (≈ 5.21 µM). The MIC [21] was 8 µg/mL (≈ 10.4 µM), the MIC [22] was 4 µg/mL (≈ 5.21 µM) and the C. albicans [23] was 5 mg/L. The “number of colony forming units (CFU) in skin biopsy” value (from here on “number of colony forming units”) ([24]; FIG. 5, 2% cream formulation) was “more effective at reducing the number of CFUs than the placebo and fucidin or bactroban”, the MRSA [25] was 2 mg/L and the MIC [26, 38] was 8 µg/mL (≈ 10.4 µM). For the same compound, the MIC ([26]; multi-drug resistant clinical isolate) was 8 µg/mL (≈ 10.4 µM), the MIC [27] was 0.5 µg/mL (≈ 0.651 µM) and the MIC [28] was 4 µg/mL (≈ 5.21 µM). For the same compound, the MIC [29] was 4 µg/mL (≈ 5.21 µM), the MIC [30] was 8 µg/mL (≈ 10.4 µM) and the MIC [31] was 4 µg/mL (≈ 5.21 µM).

With `CC(C)NC(=O)[C@H](CCCNC(=N)N)NC(=O)[C@H](Cc1c(C(C)(C)C)[nH]c2c(C(C)(C)C)cc(C(C)(C)C)cc12)NC(=O)[C@@H](N)CCCNC(=N)N` [Compound 7] the S. aureus [1] was <2 mg/L, the MIC [2] was 8 µg/mL (≈ 11 µM) and the MIC [3] was 8 µg/mL (≈ 11 µM). It also gave an MIC [4] of 4 µg/mL (≈ 5.51 µM), an MIC [32] of 8 µg/mL (≈ 11 µM) and an MIC [33] of 8 µg/mL (≈ 11 µM). For the same compound, the MIC [34] was 4 µg/mL (≈ 5.51 µM), the MIC [10] was 4 µg/mL (≈ 5.51 µM) and the MIC [35] was ≥128 µg/mL. The P. aeruginosa [16] was 7 mg/L, the S. pyogenes [17] was <2 mg/L and the E. coli [18] was 7 mg/L. For the same compound, the MRSE [19] was <2 mg/L, the MIC [36] was ≥128 µg/mL and the “number of CFUs, 2% gel compared with 1% gel” value [37] was “more effective than the gel containing only 1% of compound 7”. For the same compound, the “number of colony forming units” value ([37]; 1% or 2% gel) was “more effective at reducing the number of CFUs from a Streptococcus pyogenes CS 301 infection than the placebo gel or the bactroban”, the C. albicans [23] was 25 mg/L and the “number of colony forming units” value ([24]; FIG. 3, cream or gel 2% (w/w), three treatments, compared to placebo) was “number of CFUs was reduced”. For the same compound, the MRSA [25] was <2 mg/L, the MIC [27] was 2 µg/mL (≈ 2.75 µM) and the MIC [31] was 8 µg/mL (≈ 11 µM).

— US20230233736A1, “ANTIMICROBIAL FORMULATIONS COMPRISING SILICONE” (AMICOAT AS, priority 2020, published 2023)
